We go through one compound from ChEMBL document CHEMBL4616720 (J Med Chem, 2020).

Some results are limits rather than exact numbers.

For data set [1], the system named is A549. Briefly: Induction of apoptosis in human A549 cells assessed as late apoptotic cells at 40 uM measured after 24 hrs by Annexin V-FITC/propidium iodide staining based FACSClibur flow cytometry analysis (reference value: 2.32 %). The class given is functional. Background: Flow cytometry measures light scatter and fluorescence of single cells or particles in a stream.

A short description of data set [2]: Toxicity in KM mouse assessed as clinical changes at <262 mg/kg, ip administered as single dose measured for 14 days. The class given is organism-based. Conditions: in vivo, 336 h.
Data set [3] in a line: Selectivity index, ratio of IC50 for human MCF10A cells assessed as reduction in cell growth measured after 48 hrs by CCK8 assay to IC50 for human HCT116 cells assessed as reduction in cell growth measured after 48 hrs by CCK8. The class given is toxicity. Conditions: MCF10A cells versus HCT116 cells, read-out: Ratio IC50. A general note: Tetrazolium assays rely on reduction of a dye to a coloured formazan, in cell work by metabolically active cells.

Data set [4] relates to HCT-116. Briefly: Antitumor activity against human HCT116 cells xenografted in ip dosed BALB/c nude mouse assessed as tumor growth inhibition administered every 3 days for 21 days and measured every second day for 21 days during compound dosing by digital caliper method. The class given is functional, organism-based.
The test system of data set [5] is A549. Briefly: Induction of apoptosis in human A549 cells assessed as necrotic cells at 40 uM measured after 24 hrs by Annexin V-FITC/propidium iodide staining based FACSClibur flow cytometry analysis (reference value: 0.37 %). The class given is functional.
In the next data set the target is Histone deacetylase 1 (Homo sapiens, UniProt Q13547). The data set is described as follows: Inhibition of HDAC1 (unknown origin) using Boc-Lys(Ac)-pNA as substrate preincubated for 20 mins followed by substrate addition and further incubated for 90 mins by fluorescence assay.
Histone deacetylase 1, sequence (Q13547 whole entry): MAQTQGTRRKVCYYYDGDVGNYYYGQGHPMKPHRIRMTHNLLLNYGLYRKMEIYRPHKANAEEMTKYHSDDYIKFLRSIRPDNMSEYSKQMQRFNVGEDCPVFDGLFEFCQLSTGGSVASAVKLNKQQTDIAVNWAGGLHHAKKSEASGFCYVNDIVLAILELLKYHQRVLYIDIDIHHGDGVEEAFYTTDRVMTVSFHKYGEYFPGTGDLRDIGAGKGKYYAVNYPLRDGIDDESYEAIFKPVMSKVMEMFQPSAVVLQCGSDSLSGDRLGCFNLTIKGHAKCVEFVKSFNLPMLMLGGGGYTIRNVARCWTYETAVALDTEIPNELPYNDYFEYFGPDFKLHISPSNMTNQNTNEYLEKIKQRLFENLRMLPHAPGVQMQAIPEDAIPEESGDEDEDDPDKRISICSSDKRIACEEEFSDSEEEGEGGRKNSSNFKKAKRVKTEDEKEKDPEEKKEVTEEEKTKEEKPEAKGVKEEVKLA
Data set [6] can be described thus: Toxicity in KM mouse assessed as weight loss at 262.1 to 640 mg/kg, ip administered as single dose measured 3 times per week for 14 days. The class given is organism-based. The settings on record: in vivo, 336 h.
For data set [7], the system named is A549. Briefly: Induction of apoptosis in human A549 cells assessed as live cells at 40 uM measured after 24 hrs by Annexin V-FITC/propidium iodide staining based FACSClibur flow cytometry analysis (reference value: 97 %). The class given is functional.
The subject of data set [8] is A549. Briefly: Induction of apoptosis in human A549 cells assessed as early apoptotic cells at 40 uM measured after 24 hrs by Annexin V-FITC/propidium iodide staining based FACSClibur flow cytometry analysis (reference value: 0.35 %). The class given is functional.
For data set [9], the system named is A549. Briefly: Induction of apoptosis in human A549 cells assessed as necrotic cells at 40 uM measured after 48 hrs by Annexin V-FITC/propidium iodide staining based FACSClibur flow cytometry analysis (reference value: 0.49 %). The class given is functional.
For data set [10], the target named is T1, Protein deacetylase HDAC6 (Homo sapiens) (UniProt Q9UBN7).
T1 sequence (whole entry): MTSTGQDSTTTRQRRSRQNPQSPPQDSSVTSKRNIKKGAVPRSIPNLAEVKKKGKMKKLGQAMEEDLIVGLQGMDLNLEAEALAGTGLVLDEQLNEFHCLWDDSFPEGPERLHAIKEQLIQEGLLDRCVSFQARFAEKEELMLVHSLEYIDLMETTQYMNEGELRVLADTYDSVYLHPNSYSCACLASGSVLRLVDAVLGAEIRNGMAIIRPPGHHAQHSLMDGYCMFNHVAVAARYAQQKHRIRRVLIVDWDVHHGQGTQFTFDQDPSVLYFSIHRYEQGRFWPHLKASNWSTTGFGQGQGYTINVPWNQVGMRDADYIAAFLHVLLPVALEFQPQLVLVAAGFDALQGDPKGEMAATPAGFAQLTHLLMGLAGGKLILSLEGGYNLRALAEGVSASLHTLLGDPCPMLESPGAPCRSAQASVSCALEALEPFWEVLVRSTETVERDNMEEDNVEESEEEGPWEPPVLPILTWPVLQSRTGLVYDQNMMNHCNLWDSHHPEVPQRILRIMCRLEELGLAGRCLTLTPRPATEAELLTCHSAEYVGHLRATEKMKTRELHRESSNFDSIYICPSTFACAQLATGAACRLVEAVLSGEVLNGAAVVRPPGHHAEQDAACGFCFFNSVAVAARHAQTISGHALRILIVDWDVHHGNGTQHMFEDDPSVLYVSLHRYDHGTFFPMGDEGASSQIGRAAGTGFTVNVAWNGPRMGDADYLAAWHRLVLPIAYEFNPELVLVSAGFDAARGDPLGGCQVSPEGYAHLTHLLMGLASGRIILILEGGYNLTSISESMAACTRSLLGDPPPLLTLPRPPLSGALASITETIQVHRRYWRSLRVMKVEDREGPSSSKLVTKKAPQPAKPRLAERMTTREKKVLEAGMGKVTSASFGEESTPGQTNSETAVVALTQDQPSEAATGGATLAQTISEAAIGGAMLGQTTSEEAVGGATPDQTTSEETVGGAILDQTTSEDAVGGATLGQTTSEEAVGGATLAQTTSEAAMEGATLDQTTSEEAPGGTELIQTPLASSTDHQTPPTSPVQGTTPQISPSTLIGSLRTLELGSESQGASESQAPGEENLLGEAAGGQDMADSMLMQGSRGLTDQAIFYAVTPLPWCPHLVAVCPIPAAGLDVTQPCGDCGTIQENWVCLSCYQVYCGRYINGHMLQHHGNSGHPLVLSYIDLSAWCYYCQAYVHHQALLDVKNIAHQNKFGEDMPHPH
Briefly: Inhibition of HDAC6 (unknown origin) at 10 uM using Boc-Lys(Ac)-pNA as substrate preincubated for 20 mins followed by substrate addition and further incubated for 90 mins by fluorescence assay relative to control.

Data set [11] has as its system A549. Briefly: Antiproliferative activity against human A549 cells assessed as reduction in cell growth measured after 48 hrs by CCK8 assay. The settings on record: A549, 48 h. The class given is functional, cell-based.
Data set [12] in a line: Selectivity index, ratio of IC50 for human MCF10A cells assessed as reduction in cell growth measured after 48 hrs by CCK8 assay to IC50 for human A549 cells assessed as reduction in cell growth measured after 48 hrs by CCK8. The class given is toxicity. The settings on record: MCF10A cells versus A549 cells, read-out: Ratio IC50.
The nature of data set [13]: Acute toxicity in iv dosed KM mouse administered as single dose measured for 14 days. The settings on record: in vivo. The class given is organism-based.
The test system of data set [14] is HCT-116. Briefly: Antiproliferative activity against human HCT116 cells assessed as reduction in cell growth measured after 48 hrs by CCK8 assay. Conditions: HCT-116, 48 h. The class given is functional, cell-based.
Data set [15] can be described thus: Cmax in Sprague-Dawley rat at 20 mg/kg, po measured at 0.25 hrs by LC-MS/MS analysis. Conditions: in vivo. The class given is ADME, organism-based. Further details: dose 20 mg/kg, route oral.
Data set [16] has as its target T2, Peptide deformylase, mitochondrial (Homo sapiens) (UniProt Q9HBH1).
T2 sequence (whole entry): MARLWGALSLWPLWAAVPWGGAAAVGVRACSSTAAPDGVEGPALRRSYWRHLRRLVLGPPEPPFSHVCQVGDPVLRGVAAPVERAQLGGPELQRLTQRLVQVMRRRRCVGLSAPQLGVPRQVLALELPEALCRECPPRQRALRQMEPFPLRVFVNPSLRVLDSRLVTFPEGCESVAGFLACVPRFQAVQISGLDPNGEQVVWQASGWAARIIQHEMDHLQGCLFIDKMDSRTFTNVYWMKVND
The data set is described as follows: Inhibition of PDF in human MCF7 cells assessed as decrease in mtDNA encoded COX1 protein level measured after 48 hrs by Western blot analysis. The class given is cell-based. (In general: In western blotting, separated proteins are transferred to a membrane and probed.)

Data set [17] is described as follows: Toxicity in KM mouse assessed as behavioral changes at <262 mg/kg, ip administered as single dose measured daily for 14 days. The settings on record: in vivo, 336 h. The class given is organism-based.

For the compound `O=C(C[C@@H](CC1CCCC1)C(=O)N1CC2(CC2)C[C@H]1c1nc(-c2ccc(F)cc2C(F)(F)F)no1)NO`, the Activity in the data set on A549 [1] is 7.07%; in data set [2], “Non-Toxic”; in the data set on A549 [5], 1.12%; in data set [6], “Toxic”; in the data set with A549 [7], 87.8%; in the data set on A549 [8] it was 4.03%. Also, the Activity in the data set on A549 [9] is given as 1.01%; in data set [17], “Non-Toxic”. For the same compound, the selectivity ratio at 48 h in data set [3] and in data set [12] was 9 each time. The TGI entry in the data set on HCT-116 [4] is “Dose-dependent effect”. The figures for the IC50 at Histone deacetylase 1, in the data set with A549 [11] and in the data set with HCT-116 [14] were over 10000 nM, 2580 nM and 1980 nM, respectively. Moreover, the inhibition in [10] is 0.41%; in data set [16], “Dose-dependent effect”. Besides, the median lethal dose (LD50) at 336 h in data set [13] fell in the range of 287 to 452 mg/kg. This compound yielded a Cmax in data set [15] of 617 ng/mL.

Broadly, the IC50 is the concentration needed to halve the response being measured. By inhibition is commonly meant how much of the control response was suppressed. The term LD50 denotes the dose expected to kill half of the subjects tested. A higher LD50 goes with a less toxic substance. Usually Cmax stands for the highest concentration seen after dosing.
